Measured values reported in patent publication US20230051589A1, “COMPOUNDS AND COMPOSITIONS FOR TREATING CONDITIONS ASSOCIATED WITH NLRP ACTIVITY” (Novartis AG, priority 2018, published 2023).

What follows are compounds tested on IL-1β production in PMA-differentiated THP-1 cells (assay: IL-1β production in PMA-differentiated THP-1 cells stimulated with gramicidin (hTHP-1 assay, 2% fetal bovine serum; Procedures 1-3)). Conditions: Homo sapiens, THP-1, hTHP-1 assay containing 2% fetal bovine serum, Table B2, class symbols; read-out: IC50.
Assay type: cell-based, human
Summary of the method: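 PMA-primed THP-1 cells (20 ng/ml PMA, 16-18 h) in RPMI with 2% FBS were pre-incubated with compounds for 1 h, from 100 μM downward in 3-fold steps (0.37% DMSO final), then stimulated with 5 μM gramicidin for 2 h. IL-1β in the supernatant was quantified by HTRF.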
Work on `CN1CCc2ccc(S(N)(=O)=NC(=O)Nc3c4c(cc5c3CCC5)CCC4)cc2C1` (single isomer, unassigned) [Example 585, (R) or (S)-N′-((1,2,3,5,6,7-hexahydro-s-indacen-4-yl)carbamoyl)-2-methyl-1,2,3,4-tetrahydroisoquinoline-7-sulfonimidamide] yielded an IC50 of 1 to 5 µM. For `CC(C)(O)c1cnc(S(N)(=O)=NC(=O)Nc2c3c(cc4c2CCC4=O)CCC3)s1` (single isomer, unassigned) [Example 589, (R) or (S)-5-(2-hydroxypropan-2-yl)-N′-((1-oxo-1,2,3,5,6,7-hexahydro-s-indacen-4-yl)carbaamoyl) thiazole-2-sulfonimidamide], the IC50 was 1 to 5 µM. For `CC(C)(O)c1ccc(S(N)(=O)=NC(=O)Nc2cc3c(c4c2CCC4)CCC3)cn1` (single isomer, unassigned) [Example 591, (R) or (S)-N′-((1,2,3,6,7,8-hexahydro-as-indacen-4-yl)carbamoyl)-6-(2-hydro\ypropan-2-yl)pyridine-3-sulfonimidamide], the IC50 was 1 to 5 µM.

Same assay, conditions: Homo sapiens, THP-1, hTHP-1 assay containing 2% fetal bovine serum, Table B2, given as bound; read-out: IC50
`CN1CCc2ccc(S(N)(=O)=NC(=O)Nc3c4c(cc5c3CCC5)CCC4)cc2C1` (single isomer, unassigned) [Example 584, (S) or (R)-N′-((1,2,3,5,6,7-hexahydro-s-indacen-4-yl)carbamoyl)-2-methyl-1,2,3,4-tetrahydroisoquinoline-7-sulfonimidamide] showed an IC50 greater than 30 µM. Compound `NS(=O)(=NC(=O)Nc1c2c(cc3c1CCC3)CCC2)c1ccc(C2CCCC2)nc1` (single isomer, unassigned) [Example 586, (S) or (R)-6-cyclopentyl-N′-((1,2,3,5,6,7-hexahydro-s-indacen-4-yl)carbamoyl)pyridine-3-sulfonimidamide] has an IC50 greater than 30 µM. In the case of `CC(C)(O)c1cnc(S(N)(=O)=NC(=O)Nc2c3c(cc4c2CCC4=O)CCC3)s1` (single isomer, unassigned) [Example 588, (S) or (R)-5-(2-hydroxypropan-2-yl)-N′-((1-oxo-1,2,3,5,6,7-hexahydro-s-indacen-4-yl)carbamoyl) thiazole-2-sulfonimidamide], the IC50 is reported as greater than 30 µM. In the case of `CC(C)(O)c1ccc(S(N)(=O)=NC(=O)Nc2cc3c(c4c2CCC4)CCC3)cn1` (single isomer, unassigned) [Example 590, (S) or (R)-N′-((1,2,3,6,7,8-hexahydro-as-indacen-4-yl)carbamoyl)-6-(2-hydroxypropan-2-yl)pyridine-3-sulfonimidamide], the IC50 is reported as greater than 30 µM.

Same assay, conditions: hTHP-1 assay containing 2% fetal bovine serum, Table B2, class symbols; read-out: IC50
For `CC(C)(O)c1cc(C#N)cc(S(N)(=O)=NC(=O)Nc2c3c(c(C#N)c4c2CCC4)CCC3)c1` (single isomer, unassigned) [Example 578, (R) or (S)-3-cyano-N′-((8-cyano-1,2,3,5,6,7-hexahydro-s-indacen-4-yl)carbamoyl)-5-(2-hydroxypropan-2-yl) benzenesulfonimidamide], the IC50 was 1 to 5 µM. In the case of `CC(C)(O)c1cc(C#N)cc(S(N)(=O)=NC(=O)Nc2c3c(c(C#N)c4c2CCC4)CCC3)c1` (single isomer, unassigned) [Example 579, (S) or (R)-3-cyano-N′-((8-cyano-1,2,3,5,6,7-hexahydro-5-indacen-4-yl)carbamoyl)-5-(2-hydroxypropan-2-yl) benzenesulfonimidamide], the IC50 is reported as 5 to 30 µM. `CN(C)Cc1ccc(S(N)(=O)=NC(=O)Nc2c3c(cc4c2CC4)CCC3)cc1` (single isomer, unassigned) [Example 580, (R) or (S)-4-((dimethylamino)methyl)-N′-((2,4,5,6-tetrahydro-1H-cyclobuta[f]inden-3 - yl)carbamoyl) benzenesulfonimidamide] was tested, and the IC50 was 0.2 to 1 µM. `CN(C)Cc1ccc(S(N)(=O)=NC(=O)Nc2c3c(cc4c2CC4)CCC3)cc1` (single isomer, unassigned) [Example 581, (S) or (R)-4-((dimethylamino)methyl)-N′-((2,4,5,6-tetrahydro-1H-cyclobuta[f]inden-3-yl)carbamoyl) benzenesulfonimidamide] showed an IC50 of 5 to 30 µM. `CN(C)Cc1ccc(S(N)(=O)=NC(=O)Nc2c3c(cc4c2CC4)CC3)cc1` (single isomer, unassigned) [Example 582, (R) or (S)-4-((dimethylamino)methyl)-N′-(tricyclo[6.2.0.03,6]deca-1,3(6),7-trien-2-ylcarbamoyl) benzenesulfonimidamide] was tested, and the IC50 was 0.2 to 1 µM. In the case of `CN(C)Cc1ccc(S(N)(=O)=NC(=O)Nc2c3c(cc4c2CC4)CC3)cc1` (single isomer, unassigned) [Example 583, (S) or (R)-4-((dimethylamino)methyl)-N′-(tricyclo[6.2.0.03,6]deca-1,3(6),7-trien-2-ylcarbamoyl) benzenesulfonimidamide], the IC50 is reported as 5 to 30 µM. With `CNC(C)(C)c1ccc(S(N)(=O)=NC(=O)Nc2c3c(cc4c2CCC4)CCC3)c(F)c1` (single isomer, unassigned) [Example 592, (S) or (R)-2-fluoro-N′-((1,2,3,5,6,7-hexahydro-s-indacen-4-yl)carbamoyl)-4-(2-(methylamino)propan-2-yl) benzenesulfonimidamide] the IC50 was 5 to 30 µM. In the case of `CNC(C)(C)c1ccc(S(N)(=O)=NC(=O)Nc2c3c(cc4c2CCC4)CCC3)c(F)c1` (single isomer, unassigned) [Example 593, (R) or (S)-2-fluoro-N′-((1,2,3,5,6,7-hexahydro-s-indacen-4-yl)carbamoyl)-4-(2-(methylamino)propan-2-yl) benzenesulfonimidamide], the IC50 is reported as 0.2 to 1 µM. With `N[S@@](=O)(=NC(=O)Nc1c2c(cc3c1CCC3)CCC2)c1ccc(C(F)F)nc1` (single isomer, unassigned) [Example 595, (R) or (S)-6-(difluoromethyl)-N′-((1,2,3,5,6,7-hexahydroxy-indacen-4-yl)carbamovl)pyridine-3-sulfonimidamide] the IC50 was 1 to 5 µM. `CC(C)(O)c1ncc(S(N)(=O)=NC(=O)Nc2c3c(c(Cl)c4c2CCC4)CCC3)s1` (single isomer, unassigned) [Example 596, (S) or (R)-N′-((8-chloro-1,2,3,5,6,7-hexahydro-s-indacen-4-yl)carbamoyl)-2-(2-hydroxypropan-2-yl)thiazole-5-sulfonimidamide] was tested, and the IC50 was 1 to 5 µM. `CC(C)(O)c1ncc(S(N)(=O)=NC(=O)Nc2c3c(c(Cl)c4c2CCC4)CCC3)s1` (single isomer, unassigned) [Example 597, (R) or (S)-N′-((8-chloro-1,2,3,5,6,7-hexahydro-s-indacen-4-yl)carbamoyl)-2-(2-hydroxypropan-2-yl)thiazole-5-sulfonimidamide] showed an IC50 of 0.04 to 0.2 µM. `CC(C)(O)c1csc(S(N)(=O)=NC(=O)Nc2c3c(cc4c2CCC4=O)CCC3)c1` (single isomer, unassigned) [Example 598, (R) or (S)-4-(2-hydroxypropan-2-yl)-N′-((1-oxo-1,2,3,5,6,7-hexahydro-s-indacen-4-yl)carbamoyl) thiophene-2-sulfonimidamide] gave an IC50 of 0.2 to 1 µM. Compound `CC(C)(O)c1csc(S(N)(=O)=NC(=O)Nc2c3c(cc4c2CCC4=O)CCC3)c1` (single isomer, unassigned) [Example 599, (S) or (R)-4-(2-hydroxypropan-2-yl)-N′-((1-oxo-1,2,3,5,6,7-hexahydro-s-indacen-4-yl)carbamoyl) thiophene-2-sulfonimidamide] has an IC50 of 5 to 30 µM. Compound `CC(C)(O)c1cc(F)c(S(N)(=O)=NC(=O)Nc2c3c(cc4c2CCC4=O)CCC3)s1` (single isomer, unassigned) [Example 600, (R) or (S)-3-fluoro-5-(2-hydroxypropan-2-yl)-N′-((1-oxo-1,2,3,5,6,7-hexahydro-s-indacen-4-yl)carbamoyl)thiophene-2-sulfonimidamide] has an IC50 of 0.2 to 1 µM. `CC(C)(O)c1cc(F)c(S(N)(=O)=NC(=O)Nc2c3c(cc4c2CCC4=O)CCC3)s1` (single isomer, unassigned) [Example 601, (S) or (R)-3-fluoro-5-(2-hydroxypropan-2-yl)-N′-((1-oxo-1,2,3,5,6,7-hexahydro-s-indacen-4-yl)carbamoyl)thiophene-2-sulfonimidamide] gave an IC50 of 5 to 30 µM. Work on `CNC(C)(C)c1ccc(S(N)(=O)=NC(=O)Nc2c3c(cc4c2CCC4)CCC3)cc1` (single isomer, unassigned) [Example 602, (R) or (S)-N′-((1,2,3,5,6,7-hexahydro-s-indacen-4-yl)carbamoyl)-4-(2-(methylamino)propan-2-yl) benzenesuIfonimidamide] yielded an IC50 of 0.2 to 1 µM. `CNC(C)(C)c1ccc(S(N)(=O)=NC(=O)Nc2c3c(cc4c2CCC4)CCC3)cc1` (single isomer, unassigned) [Example 603, (R) or (S)-N′-((1,2,3,5,6,7-hexahydro-s-indacen-4-yl)carbamoyl)-4-(2-(methylamino)propan-2-yl) benzenesulfonimidamide] gave an IC50 of 5 to 30 µM.

Same assay, conditions: hTHP-1 assay containing 2% fetal bovine serum, Table B2, given as bound; read-out: IC50
With `N[S@](=O)(=NC(=O)Nc1c2c(cc3c1CCC3)CCC2)c1ccc(OC(F)F)cc1` (single isomer, unassigned) [Example 577, (S) or (R)-4-(difluoromethoxy)-N′-((1,2,3,5,6,7-hexahydro-s-indacen-4-yl)carbamoyl) benzenesulfonimidamide] the IC50 was greater than 30 µM. In the case of `NS(=O)(=NC(=O)Nc1c2c(cc3c1CCC3)CCC2)c1ccc(C2CCCC2)nc1` (single isomer, unassigned) [Example 587, (R) or (S)-6-cyclopentyl-N′-((1,2,3,5,6,7-hexahydro-s-indacen-4-yl)carbamoyl)pyridine-3-sulfonimidamide], the IC50 is reported as greater than 30 µM. For `N[S@](=O)(=NC(=O)Nc1c2c(cc3c1CCC3)CCC2)c1ccc(C(F)F)nc1` (single isomer, unassigned) [Example 594, (S) or (R)-6-(difluoromethyl)-N′-((1,2,3,5,6,7-hexahydroxy-indacen-4-yl)carbamoyl) pyridine-3-sulfonimidamide], the IC50 was greater than 30 µM.
